pIC50: −log10 of the molar value.

The target in one assay is T1, SMYD2 (Homo sapiens, UniProt Q9NRG4).
T1 construct: Full length SMYD2 (NP 064582.2) was cloned; His6 (N, cleaved yes); FLAG (N); made in house; host or cells: Sf9 insect cells
T1 sequence (Q9NRG4 whole entry): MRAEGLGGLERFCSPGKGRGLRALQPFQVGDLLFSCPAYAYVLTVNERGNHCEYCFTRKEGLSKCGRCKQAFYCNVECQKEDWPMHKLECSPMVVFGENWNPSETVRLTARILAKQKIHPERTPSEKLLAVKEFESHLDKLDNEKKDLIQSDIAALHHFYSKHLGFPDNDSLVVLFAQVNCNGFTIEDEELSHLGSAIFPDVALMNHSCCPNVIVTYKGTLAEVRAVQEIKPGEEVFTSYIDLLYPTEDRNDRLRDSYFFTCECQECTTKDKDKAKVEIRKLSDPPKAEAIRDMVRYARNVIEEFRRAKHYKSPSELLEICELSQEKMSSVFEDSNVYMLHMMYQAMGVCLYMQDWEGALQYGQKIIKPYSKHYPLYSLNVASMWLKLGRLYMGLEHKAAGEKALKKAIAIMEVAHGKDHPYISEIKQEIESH
Put plainly: SMYD2 Biochemical Assay (3H-SAM, biotinylated peptide substrate, Flashplate). To be noted: IC50 values are an average of n = 1 to n = 50; read-out: SMYD2 Biochem IC50 (μM)*. From the text:
S-adenosylmethionine (SAM), S-adenosylhomocysteine (SAH), bicine, Tween20, dimethylsulfoxide (DMSO), bovine skin gelatin (BSG), and Tris(2-carboxyethyl)phosphine hydrochloride (TCEP) were purchased from Sigma-Aldrich at the highest level of purity possible. ^3H-SAM was purchase from American Radiolabeled Chemicals with a specific activity of 80 Ci/mmol. 384-well streptavidin Flashplates were purchased from PerkinElmer.
Peptide was synthesized with a N-terminal linker-affinity tag motif and a C-terminal amide cap by 21st Century Biochemicals. The peptide was high-performance liquid chromatography (HPLC) purified to greater than 95% purity and confirmed by liquid chromatography mass spectrometry (LC-MS). The sequence was […](K-Biot)-amide. (SEQ ID No: 3)
Full length SMYD2 (NP 064582.2) was cloned into a pFastbac-Htb-lic vector with an N-terminal His6 tag and FLAG tag, preceded by a TEV protease cleavage site. The protein was expressed in Sf9 insect cells. Cells were resuspended in lysis buffer (25 mM HEPES-NaOH, pH 7.5, 200 mM NaCl, 5% glycerol, and 5 mM β-ME) and lysed by sonication. The protein was purified by Ni-NTA (Qiagen), followed by TEV cleavage to remove the His6 tag, subtractive Ni-NTA (Qiagen), and gel filtration chromatography using an […] (GE Healthcare). Purified protein was stored in 20 mM Tris-HCl, pH 8.0, 100 mM NaCl, and 1 mM TCEP.
The assays were all performed in a buffer consisting of 20 mM Bicine (pH=7.6), 1 mM TCEP, 0.005% Bovine Skin Gelatin, and 0.002% Tween20, prepared on the day of use. Compounds in 100% DMSO (1 ul) were spotted into a polypropylene 384-well V-bottom plates (Greiner) using a Platemate Plus outfitted with a 384-channel head (Thermo Scientific). DMSO (1 ul) was added to Columns 11, 12, 23, 24, rows A-H for the maximum signal control and 1 ul of SAH, a known product and inhibitor of SMYD2, was added to columns 11, 12, 23, 24, rows I-P for the minimum signal control. A cocktail (40 ul) containing the SMYD2 enzyme was added by Multidrop Combi (Thermo-Fisher). The compounds were allowed to incubate with SMYD2 for 30 min at room temperature, then a cocktail (10 ul) containing ^3H-SAM and peptide was added to initiate the reaction (final volume=51 ul). The final concentrations of the components were as follows: SMYD2 was 1.5 nM, ^3H-SAM was 10 nM, and peptide was 60 nM, SAH in the minimum signal control wells was 1000 uM, and the DMSO concentration was 2%. The assays were stopped by the addition of non-radioactive SAM (10 ul) to a final concentration of 600 uM, which dilutes the ^3H-SAM to a level where its incorporation into the peptide substrate is no longer detectable. 50 ul of the reaction in the 384-well polypropylene plate was then transferred to a 384-well Flashplate and the biotinylated peptides were allowed to bind to the streptavidin surface for at least 1 hour before being washed three times with 0.1% Tween20 in a Biotek ELx405 plate washer. The plates were then read in a PerkinElmer TopCount plate reader to measure the quantity of ^3H-labeled peptide bound to the Flashplate surface, measured as disintegrations per minute (dpm) or alternatively, referred to as counts per minute (cpm).
Where dpm=disintegrations per minute, cmpd=signal in assay well, and min and max are the respective minimum and maximum signal controls.
Where top and bottom are the normally allowed to float, but may be fixed at 100 or 0 respectively in a 3-parameter fit. The Hill Coefficient normally allowed to float but may also be fixed at 1 in a 3-parameter fit. I is the compound concentration.
SMYD2 biochemical assay data for representative Compounds of the Disclosure are presented in Tables 1-3 in the column titled “SMYD2 Biochem IC50 (μM).”
Usually IC50 stands for the concentration that inhibits the measured activity by half. On to `C[C@H]1CN(CC2CCNC2)C[C@H]1NC(=O)c1cc(C2CC2)on1` (mixture of isomers) [compound 163, (±)-cis-5-cyclopropyl-N-[4-methyl-1-(pyrrolidin-3-ylmethyl)pyrrolidin-3-yl]-1,2-oxazole-3-carboxamide], for which the IC50 was > 50 µM.
On the same count and under the same terms, with `C[C@@H]1CN(Cc2ccccn2)C[C@H]1NC(=O)c1cc(C2CC2)on1` (racemic) [compound 125, (±)-trans-5-cyclopropyl-N-[4-methyl-1-(pyridin-2-ylmethyl)pyrrolidin-3-yl]-1,2-oxazole-3-carboxamide] the figure was > 50 µM; with `CC(C)c1cc(C(=O)N[C@H]2C[C@H](CNC(=O)C3CCCCC3)N(C3CC3)C2)no1` (stereo in doubt) [compound 190, (±)-trans-N-[5-[(cyclohexyl-formamido)methyl]-1-cyclopropylpyrrolidin-3-yl]-5-(propan-2-yl)-1,2-oxazole-3-carboxamide], > 50 µM; with `C[C@H]1CN(Cc2cc3ccccc3nc2Cl)C[C@H]1NC(=O)c1cc(C2CC2)on1` (racemic) [compound 269, (±)-cis-N-[1-[(2-chloro-quinolin-3-yl)methyl]-4-methylpyrrolidin-3-yl]-5-cyclopropyl-1,2-oxazole-3-carboxamide], 4.17 µM.
On the same count and under the same terms, with `CC(C)N1C[C@H](C)[C@H](NC(=O)c2cc(C(C)(C)C)on2)C1` (racemic) [compound 201, (±)-cis-5-tert-butyl-N-[4-methyl-1-(propan-2-yl)pyrrolidin-3-yl]-1,2-oxazole-3-carboxamide] the figure was > 50 µM; with `Cc1nc[nH]c1CN1C[C@@H](C)[C@H](NC(=O)c2cc(C3CC3)on2)C1` (racemic) [compound 173, (±)-trans-5-cyclopropyl-N-[4-methyl-1-[(4-methyl-1H-imidazol-5-yl)methyl]pyrrolidin-3-yl]-1,2-oxazole-3-carboxamide], > 50 µM; with `CC[C@H]1CN(C(C)C)C[C@H]1NC(=O)c1cc(C2CC2)on1` (racemic) [compound 188, (±)-cis-5-cyclopropyl-N-[4-ethyl-1-(propan-2-yl)pyrrolidin-3-yl]-1,2-oxazole-3-carboxamide], 15.9 µM.

The same assay, now with this note: Table 1; average of n = 1 to n = 50; read-out: SMYD2 Biochem IC50.
Broadly, the pIC50 is the negative decadic logarithm of the IC50, by convention in mol/L. Consider `C[C@H]1CN(C2CC2)C[C@H]1NC(=O)c1cc(C2CCCC2)on1` (racemic) [compound 54, (±)-cis-5-cyclopentyl-N-(1-cyclopropyl-4-methylpyrrolidin-3-yl)isoxazole-3-carboxamide], for which the pIC50 was < 4.30.
Same read-out and setting: with `CC(C)N1C[C@@H](C)[C@H](NC(=O)c2cc(C3CC3)on2)C1` [compound 41, 5-cyclopropyl-N-((3S,4R)-1-isopropyl-4-methylpyrrolidin-3-yl)isoxazole-3-carboxamide] the figure was 4.74.
Take `CCc1cc(C(=O)N[C@H]2CN(C3CC3)C[C@@H]2C)no1` (racemic) [compound 52, (±)-trans-N-(1-cyclopropyl-4-methylpyrrolidin-3-yl)-5-ethylisoxazole-3-carboxamide]: the pIC50 was < 4.30.
The same measure, in the same setting: with `O=C(N[C@@H]1C[C@H](CO)N(C2CC2)C1)c1cc(C2CC2)on1` (racemic) [compound 49, (±)-cis-5-cyclopropyl-N-(1-cyclopropyl-5-(hydroxy-methyl)pyrrolidin-3-yl)isoxazole-3-carboxamide] the figure was < 4.30.

Staying with this assay, now noted: Table 2; average of n = 1 to n = 50; read-out: SMYD2 Biochem IC50.
Regarding `C[C@H]1CN(S(C)(=O)=O)C[C@H]1NC(=O)c1cc(C2CC2)on1` (racemic) [compound 66, (±)-cis-5-cyclopropyl-N-(4-methyl-1-(methyl-sulfonyl)pyrrolidin-3-yl)isoxazole-3-carboxamide], the pIC50 was < 4.30.
Still for that read-out and setting: with `C[C@@H]1CN(C2CCNCC2)C[C@@H]1NC(=O)c1cc(C2CC2)on1` (racemic) [compound 81, (±)-cis-5-cyclopropyl-N-(4-methyl-1-(piperidin-4-yl)pyrrolidin-3-yl)isoxazole-3-carboxamide] the figure was < 4.30.

Values taken from patent US20170253601A1, “Substituted Pyrrolidine Compounds” (EPIZYME, INC., priority 2014, published 2017).
